Experiments:
[1] = tested on: Enterococcus faecium MDR Van A ATCC 51559; experiment: MIC assay, E. faecium MDR Van A ATCC 51559; assay type: cell-based; conditions: 24 h incubation, visual reading
Outline: (§1)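 Twofold broth microdilution in Mueller Hinton broth; compounds tested from 8 μg/ml to 0.003 μg/ml. Mid-log cultures were inoculated at 5×10e5 CFU/mL and incubated 24 h at 37° C. MIC was the lowest concentration with no visible growth.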

MRSA (Strain ATCC 43300) = experiment: Murine thigh infection model (MRSA); assay type: in vivo, Staphylococcus aureus; conditions: neutropenic CD1 mice, single subcutaneous dose 10 mg/kg
Method: Summary: Adult (8 week old) female CD1 mice were made neutropenic by two injections of cyclophosphamide 4 days and 1 day prior to infection. An inoculum of 10^5 cfu MRSA (Strain ATCC 43300) was injected intramuscularly into both left and right thighs of all mice. […] After an additional two hours, a 50 μL sample of blood was obtained from the tail bleed to analyse for presence of antibiotic compound. […] Thighs were then removed, weighed and homogenised in a fixed volume of saline. The homogenate solution was filtered, diluted and seeded onto agar plates, which were incubated overnight at 37° C. Colony counts were used to establish the cfu in the thigh homogenates, the cfu/thigh, and the cfu/g of thigh.
Compound preparation: Cyclophosphamide monohydrate (Sigma) was dissolved in sterile saline to a concentration of 30 mg/mL. Likewise, vancomycin (Sigma) and MCC compounds were also dissolved in sterile saline to a final concentration of 60 mg/mL and 18.5 mg/mL respectively. All compounds were prepared in low binding Eppendorf tubes and kept at −20° C. until used.
In vivo experimental assay: Eight week old female outbred CD1 mice (UQBR-AIBN) were rendered neutropenic by injecting two doses of cyclophosphamide intraperitoneally 4 days (150 mg/kg) and 1 day (100 mg/kg) prior to experimental infection. The infection model using MRSA was established by intramuscular injection of 50 μL of early-log-phase bacterial MRSA suspension (around 2×10^6 cfu/mL) in saline into both thigh muscles. […] Untreated animals received equivalent volume of saline (Baxter). The mice were monitored for signs of normal behaviour (i.e. grooming, eating, drinking, sleeping, and alertness) during and following dosing. Two hours after saline/antibiotic treatment, 0.05 mL of blood was collected by tail incision. 24 hours after MRSA infection, mice were euthanized and blood collected from the heart by cardiac puncture (saline group) or by tail incision (Vancomycin and MCC compound treated groups) as outlined in FIG. 1. For each mouse, both thighs were collected aseptically by cutting the leg at the hip and knee, placed in 10 mL of cold sterile saline and the individual weight of each thigh recorded.
Preparation of injectable MRSA solution: An MRSA subculture bacterial isolate (ATCC43300) was taken from the storage at −80° C. and freshly seeded on agar plates for overnight (O/N) growth. From the O/N culture preparation, a single colony was diluted into 10-12 mL of Mueller Hinton broth (MHB) and incubated O/N at 37° C. A log-phase subculture was obtained by adding 100 μL of O/N subculture in 10 mL MHB and incubated for a further 2-3 hours. Finally, the OD600 value of the bacterial suspension was determined and the colony forming units per millilitre (cfu/mL) extrapolated. A full dilution of the bacterial cell suspension in saline was achieved by washing (3220×g for 10 min) and the OD600 in saline determined. The suspension was then diluted out accordingly in order to achieve a 2×10^6 cfu/mL solution (10^5 cfu in 50 μL/thigh).
Thus, 10 μL of the injectable MRSA suspension was diluted down to 10-1000 fold, each dilution plated out onto agar plates and incubated at 37° C. for 24 hours.
Thigh homogenates and CFU determination: Thighs were homogenized at 20,000 rpm for 15 seconds using a Polytron MR2500E using a […] probe (all Kinematica).

[2] = tested on: Staphylococcus aureus MRSA ATCC 43300; experiment: MIC assay, S. aureus MRSA ATCC 43300; assay type: cell-based; conditions: 24 h incubation, visual reading
Outline: as §1

[3] = tested on: Streptococcus pneumoniae MDR ATCC 700677; experiment: MIC assay, S. pneumoniae MDR ATCC 700677; assay type: cell-based; conditions: 24 h incubation, visual reading
Outline: as §1

| Structure (SMILES) | Minimum Inhibitory Concentration (MIC) E. faecium ATCC51559 [1] | Average Reduction log Δcfu MRSA/thigh after 26 h (MRSA (Strain ATCC 43300)) | Minimum Inhibitory Concentration (MIC) Staph. aureus ATCC43300 [2] | Minimum Inhibitory Concentration (MIC) S. pneumoniae ATCC 700677 [3] |
| --- | --- | --- | --- | --- |
| CCCCCCCCCC(=O)N[C@@H](CCCCN)C(=O)N[C@@H](CCCCN)C(=O)N[C@@H](CCCCN)C(=O)NCCNC(=O)[C@H]1NC(=O)[C@H]2NC(=O)[C@H](NC(=O)[C@@H]3NC(=O)[C@H](CC(N)=O)NC(=O)[C@H](NC(=O)[C@@H](CC(C)C)NC)[C@H](O)c4ccc(c(Cl)c4)Oc4cc3cc(c4O[C@@H]3O[C@H](CO)[C@@H](O)[C@H](O)[C@H]3O[C@H]3C[C@](C)(N)[C@H](O)[C@H](C)O3)Oc3ccc(cc3Cl)[C@H]2O)c2ccc(O)c(c2)-c2c(O)cc(O)cc21 [MCC_005181] | xx (xx = 1-4) | xx (xx = 2-4) | xxxxx (xxxxx = <0.01) | xxxx (xxxx = 0.01-<0.1) |
| CCCCCCCC(O)CC(=O)N[C@@H](CCCCN)C(=O)N[C@@H](CCCCN)C(=O)NCCCNC(=O)[C@H]1NC(=O)[C@H]2NC(=O)[C@H](NC(=O)[C@@H]3NC(=O)[C@H](CC(N)=O)NC(=O)[C@H](NC(=O)[C@@H](CC(C)C)NC)[C@H](O)c4ccc(c(Cl)c4)Oc4cc3cc(c4O[C@@H]3O[C@H](CO)[C@@H](O)[C@H](O)[C@H]3O[C@H]3C[C@](C)(N)[C@H](O)[C@H](C)O3)Oc3ccc(cc3Cl)[C@H]2O)c2ccc(O)c(c2)-c2c(O)cc(O)cc21 (stereo partly shown) [MCC_005483] | x (x = >4) | xxx (xxx = 4-6) | xxxx (xxxx = 0.01-<0.1) | xxxx (xxxx = 0.01-<0.1) |
| CNC(CC(C)C)C(=O)NC1C(=O)NC(CC(N)=O)C(=O)NC2C(=O)NC3C(=O)NC(C(=O)NC(C(=O)NCCCNC(=O)C(CCCCN)NC(=O)C(CCCCN)NC(=O)c4ccc(Oc5ccccc5)cc4)c4cc(O)cc(O)c4-c4cc3ccc4O)C(O)c3ccc(c(Cl)c3)Oc3cc2cc(c3OC2OC(CO)C(O)C(O)C2OC2CC(C)(N)C(O)C(C)O2)Oc2ccc(cc2Cl)C1O (stereo not shown) [MCC_005364] | xx (xx = 1-4) | xx (xx = 2-4) | xxxxx (xxxxx = <0.01) | xxxx (xxxx = 0.01-<0.1) |
| CCCCCCCCCC(=O)N[C@@H](CCCCN)C(=O)N[C@@H](CCCCN)C(=O)N[C@@H](CCCCN)C(=O)NCCCNC(=O)[C@H]1NC(=O)[C@H]2NC(=O)[C@H](NC(=O)[C@@H]3NC(=O)[C@H](CC(N)=O)NC(=O)[C@H](NC(=O)[C@@H](CC(C)C)NC)[C@H](O)c4ccc(c(Cl)c4)Oc4cc3cc(c4O[C@@H]3O[C@H](CO)[C@@H](O)[C@H](O)[C@H]3O[C@H]3C[C@](C)(N)[C@H](O)[C@H](C)O3)Oc3ccc(cc3Cl)[C@H]2O)c2ccc(O)c(c2)-c2c(O)cc(O)cc21 [MCC_005201] | xx (xx = 1-4) | xx (xx = 2-4) | xxxx (xxxx = 0.01-<0.1) | xxxx (xxxx = 0.01-<0.1) |
| CCCCCCCCCC(=O)N[C@@H](CCCCN)C(=O)N[C@@H](CCCCN)C(=O)NCCNC(=O)[C@H]1NC(=O)[C@H]2NC(=O)[C@H](NC(=O)[C@@H]3NC(=O)[C@H](CC(N)=O)NC(=O)[C@H](NC(=O)[C@@H](CC(C)C)NC)[C@H](O)c4ccc(c(Cl)c4)Oc4cc3cc(c4O[C@@H]3O[C@H](CO)[C@@H](O)[C@H](O)[C@H]3O[C@H]3C[C@](C)(N)[C@H](O)[C@H](C)O3)Oc3ccc(cc3Cl)[C@H]2O)c2ccc(O)c(c2)-c2c(O)cc(O)cc21 [MCC_005166] | x (x = >4) | xxx (xxx = 4-6) | xxxx (xxxx = 0.01-<0.1) | xxxx (xxxx = 0.01-<0.1) |
| CNC(CC(C)C)C(=O)NC1C(=O)NC(CC(N)=O)C(=O)NC2C(=O)NC3C(=O)NC(C(=O)NC(C(=O)NCCCNC(=O)C(CCCCN)NC(=O)c4ccc(Oc5ccccc5)cc4)c4cc(O)cc(O)c4-c4cc3ccc4O)C(O)c3ccc(c(Cl)c3)Oc3cc2cc(c3OC2OC(CO)C(O)C(O)C2OC2CC(C)(N)C(O)C(C)O2)Oc2ccc(cc2Cl)C1O (stereo not shown) [MCC_007407] | x (x = >4) | xxx (xxx = 4-6) | xxxx (xxxx = 0.01-<0.1) | xxxx (xxxx = 0.01-<0.1) |
| CCCCCCCCCC(=O)N[C@@H](CCCCN)C(=O)N[C@@H](CCCCN)C(=O)N1CCC(CNC(=O)[C@H]2NC(=O)[C@H]3NC(=O)[C@H](NC(=O)[C@@H]4NC(=O)[C@H](CC(N)=O)NC(=O)[C@H](NC(=O)[C@@H](CC(C)C)NC)[C@H](O)c5ccc(c(Cl)c5)Oc5cc4cc(c5O[C@@H]4O[C@H](CO)[C@@H](O)[C@H](O)[C@H]4O[C@H]4C[C@](C)(N)[C@H](O)[C@H](C)O4)Oc4ccc(cc4Cl)[C@H]3O)c3ccc(O)c(c3)-c3c(O)cc(O)cc32)CC1 [MCC_005489] | xx (xx = 1-4) | xxx (xxx = 4-6) | xxxx (xxxx = 0.01-<0.1) | xxxx (xxxx = 0.01-<0.1) |
| CCCCCCCCCC(=O)N[C@@H](CCCCN)C(=O)N[C@@H](CCCCN)C(=O)NCCCNC(=O)[C@H]1NC(=O)[C@H]2NC(=O)[C@H](NC(=O)[C@@H]3NC(=O)[C@H](CC(N)=O)NC(=O)[C@H](NC(=O)[C@@H](CC(C)C)NC)[C@H](O)c4ccc(c(Cl)c4)Oc4cc3cc(c4O[C@@H]3O[C@H](CO)[C@@H](O)[C@H](O)[C@H]3O[C@H]3C[C@](C)(N)[C@H](O)[C@H](C)O3)Oc3ccc(cc3Cl)[C@H]2O)c2ccc(O)c(c2)-c2c(O)cc(O)cc21 [MCC_005084] | xx (xx = 1-4) | xxx (xxx = 4-6) | xxxx (xxxx = 0.01-<0.1) | xxxx (xxxx = 0.01-<0.1) |
| CCCCCCCCC(=O)N[C@@H](CCCCN)C(=O)N[C@@H](CCCCN)C(=O)NCCNC(=O)[C@H]1NC(=O)[C@H]2NC(=O)[C@H](NC(=O)[C@@H]3NC(=O)[C@H](CC(N)=O)NC(=O)[C@H](NC(=O)[C@@H](CC(C)C)NC)[C@H](O)c4ccc(c(Cl)c4)Oc4cc3cc(c4O[C@@H]3O[C@H](CO)[C@@H](O)[C@H](O)[C@H]3O[C@H]3C[C@](C)(N)[C@H](O)[C@H](C)O3)Oc3ccc(cc3Cl)[C@H]2O)c2ccc(O)c(c2)-c2c(O)cc(O)cc21 [MCC_005165] | x (x = >4) | xxx (xxx = 4-6) | xxxx (xxxx = 0.01-<0.1) | xxxx (xxxx = 0.01-<0.1) |
| CCCCCCCC(=O)N[C@@H](CCCCN)C(=O)NCCCNC(=O)[C@H]1NC(=O)[C@H]2NC(=O)[C@H](NC(=O)[C@@H]3NC(=O)[C@H](CC(N)=O)NC(=O)[C@H](NC(=O)[C@@H](CC(C)C)NC)[C@H](O)c4ccc(c(Cl)c4)Oc4cc3cc(c4O[C@@H]3O[C@H](CO)[C@@H](O)[C@H](O)[C@H]3O[C@H]3C[C@](C)(N)[C@H](O)[C@H](C)O3)Oc3ccc(cc3Cl)[C@H]2O)c2ccc(O)c(c2)-c2c(O)cc(O)cc21 [MCC_005202] | x (x = >4) | xx (xx = 2-4) | xxx (xxx = 0.1-<1) | xxx (xxx = 0.1-<1) |
